Assay [1] has as its target T1, full length AKT3 (Homo sapiens, UniProt Q9Y243).
T1 construct: Full length AKT2 and full length AKT3 were cloned, expressed and purified in a similar fashion; His tag (inferred: made in a similar fashion to AKT1 in pFastbacHTb with nickel purification) (N); made in house; host or cells: baculovirus; insect cells (by analogy with AKT1)
As to the kind of experiment: AKT enzyme assay (substrate phosphorylation, SPA), full length AKT3. The format is biochemical. The settings on record: in at least one experimental run; pIC50 = -log(IC50), IC50 in molar units. Here is the method: Compounds of the present invention are tested for AKT 1, 2, and 3 protein serine kinase inhibitory activity in substrate phosphorylation assays. This assay examines the ability of small molecule organic compounds to inhibit the serine phosphorylation of a peptide substrate. […] AKT 1, 2 and 3 are also commercially available from Upstate USA, Inc. The method measures the ability of the isolated enzyme to catalyze the transfer of the gamma-phosphate from ATP onto the serine residue of a biotinylated synthetic peptide SEQ. […] Substrate phosphorylation is detected by the following procedure:
ATP/well, 1 mM CHAPS, 2 mM DTT, and 1 ul of test compound in 100% DMSO. The reaction is stopped by the addition of 50 ul SPA bead mix (Dulbecco's PBS without Mg^2+ and Ca^2+, 0.1% Triton X-100, 5 mM EDTA, 50 uM ATP, 2.5 mg/ml Streptavidin-coated SPA beads.) The plate is sealed, the beads are allowed to settle overnight, and then the plate is counted in a Packard Topcount Microplate Scintillation Counter (Packard Instrument Co., Meriden, Conn.).
The data for dose responses are plotted as % Control calculated with the data reduction formula 100*(U1−C2)/(C1−C2) versus concentration of compound where U is the unknown value, C1 is the average control value obtained for DMSO, and C2 is the average control value obtained for 0.1M EDTA. […]

Assay [2] addresses T2, full length AKT1 (Homo sapiens, UniProt P31749).
T2 construct: Full-length human AKT1 gene was amplified by PCR; His tag (from vector pFastbacHTb; N-terminal position is own knowledge of the vector) (N); made in house; host or cells: baculovirus; Sf9 / T. ni insect cells
The assay can be described thus: AKT enzyme assay (substrate phosphorylation, SPA), full length AKT1. The format is biochemical. The settings on record: in at least one experimental run; pIC50 = -log(IC50), IC50 in molar units.

The structures appear in SMILES notation.

T1 sequence (Q9Y243 whole entry): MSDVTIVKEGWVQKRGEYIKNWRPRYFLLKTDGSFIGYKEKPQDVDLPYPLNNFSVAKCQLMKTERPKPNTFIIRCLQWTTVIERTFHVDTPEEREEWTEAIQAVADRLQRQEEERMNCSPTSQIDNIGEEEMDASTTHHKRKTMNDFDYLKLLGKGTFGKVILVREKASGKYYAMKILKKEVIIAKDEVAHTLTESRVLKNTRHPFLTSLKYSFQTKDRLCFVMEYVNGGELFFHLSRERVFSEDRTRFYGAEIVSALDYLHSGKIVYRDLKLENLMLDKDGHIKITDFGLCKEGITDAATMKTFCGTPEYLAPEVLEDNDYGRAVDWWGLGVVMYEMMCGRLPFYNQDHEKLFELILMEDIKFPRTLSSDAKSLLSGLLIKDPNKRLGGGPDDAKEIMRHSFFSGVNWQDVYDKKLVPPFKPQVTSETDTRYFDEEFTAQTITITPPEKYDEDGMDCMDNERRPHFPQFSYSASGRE
T2 sequence (P31749 whole entry): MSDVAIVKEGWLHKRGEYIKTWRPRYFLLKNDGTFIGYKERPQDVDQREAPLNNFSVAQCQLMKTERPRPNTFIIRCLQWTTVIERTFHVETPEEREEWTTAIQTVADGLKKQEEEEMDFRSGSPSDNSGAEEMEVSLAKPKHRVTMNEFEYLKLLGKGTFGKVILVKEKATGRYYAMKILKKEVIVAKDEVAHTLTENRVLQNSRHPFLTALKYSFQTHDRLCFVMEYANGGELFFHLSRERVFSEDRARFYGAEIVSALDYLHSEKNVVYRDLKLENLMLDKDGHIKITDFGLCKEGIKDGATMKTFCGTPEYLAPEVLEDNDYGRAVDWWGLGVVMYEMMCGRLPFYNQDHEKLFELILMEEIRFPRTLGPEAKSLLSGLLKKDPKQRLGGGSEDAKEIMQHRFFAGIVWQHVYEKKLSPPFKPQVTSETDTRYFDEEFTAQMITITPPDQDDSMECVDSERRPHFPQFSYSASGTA

As to `Cn1ncc(Cl)c1-c1cc(C(=O)N[C@H](CN)Cc2cccc(F)c2)oc1Cl` [Example 137, N-{(1S)-2-amino-1-[(3-fluorophenyl)methyl]ethyl}-5-chloro-4-(4-chloro-1-methyl-1H-pyrazol-5-yl)-2-furancarboxamide], the “pIC50 value against full length AKT3” value in assay [1] is reported as 8.4. The “pIC50 value against full length AKT1” value in assay [2] is on record as 9.0.

Turning to `Cc1sc(C(=O)N[C@H](CN)Cc2cccc(F)c2)cc1-c1c(Cl)cnn1C` [Example 161, N-{(1S)-2-amino-1-[(3-fluorophenyl)methyl]ethyl}-4-(4-chloro-1-methyl-1H-pyrazol-5-yl)-5-methyl-2-thiophenecarboxamide], the “pIC50 value against full length AKT3” value in assay [1] is reported as 7.6. In addition, the “pIC50 value against full length AKT1” value in assay [2] amounted to 8.8.

The values are drawn from patent publication US8273782B2, “Inhibitors of Akt activity” (GlaxoSmithKline LLC, priority 2007, dated 2012).
